The values below come from patent publication US20120041211A1, “NOVEL PROCESS FOR PREPARING CARBOXY-CONTAINING PYRAZOLEAMIDO COMPOUNDS 597” (priority 2009, published 2012).

The data set is described as follows: Stability of solvate form on exposure to the lab atmosphere. In kind it is physicochemical. The settings on record: 21° C., 30% relative humidity, material from wet suspension. The protocol: 20 mg of Form 4 was added to a small vessel. 0.711 ml of Form 4 saturated MeOH solution was added to the vessel making a suspension. The suspension was stirred for 7 days at 25° C. Thereafter the suspension was stirred at 21° C. for 1½ months. The wet suspension was analysed by XRPD (Cu-source) giving substantially the following d-values. […] For diffractogram see FIG. 8.
20 mg of Form 4 was added to a small vessel. 0.711 ml MTBE was added to the vessel making a suspension. The suspension was stirred for 7 days at 25° C. The wet suspension was analysed by XRPD (Cu-source) giving substantially the following d-values.

For the molecule `CC(C)(C)c1c(C(=O)NC2C3CC4CC(C3)CC2C4)cnn1-c1ccc(C(=O)O)cc1` (centres unmarked) [MTBE Solvate, 4-[4-(2-adamantylcarbamoyl)-5-tert-butyl-pyrazol-1-yl]benzoic acid], the “stability / form transformation on exposure to the lab atmosphere” value is “transforms to Hydrate”.

As to `CC(C)(C)c1c(C(=O)NC2C3CC4CC(C3)CC2C4)cnn1-c1ccc(C(=O)O)cc1` (centres unmarked) [MeOH Solvate, 4-[4-(2-adamantylcarbamoyl)-5-tert-butyl-pyrazol-1-yl]benzoic acid], the “stability / form transformation on exposure to the lab atmosphere” value is on record as “rapidly transforms to Form 3”.
